We go through 2 compounds from paper PMC9224512, “New Insights into the Determinants of Specificity in Human Type I Arginase: Generation of a Mutant That Is Only Active with Agmatine as Substrate” (International Journal of Molecular Sciences, 2022).

The kcat is the number of substrate molecules converted per active site and unit of time at saturation. The Km is the substrate concentration at which the rate is half of its maximum. A word on the Ki: it is the equilibrium dissociation constant of an inhibitor or competing ligand from its target.

Changes are numbered by the printed parent chain.

The target in test [1] is T1, Chimera A1 (I129T/N130Y/T131A) of human arginase type I (Homo sapiens, UniProt P05089, I129T/N130Y/T131A).
T1 sequence (P05089 1-322 I129T/N130Y/T131A): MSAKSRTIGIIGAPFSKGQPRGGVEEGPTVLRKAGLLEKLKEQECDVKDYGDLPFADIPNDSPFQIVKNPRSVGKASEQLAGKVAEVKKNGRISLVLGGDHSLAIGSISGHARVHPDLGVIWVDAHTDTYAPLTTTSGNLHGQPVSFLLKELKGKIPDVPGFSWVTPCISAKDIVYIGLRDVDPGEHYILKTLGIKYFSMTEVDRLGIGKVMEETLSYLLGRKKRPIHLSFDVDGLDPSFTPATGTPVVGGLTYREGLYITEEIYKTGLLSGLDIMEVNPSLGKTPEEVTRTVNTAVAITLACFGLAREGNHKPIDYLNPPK
In words: Kinetic and inhibition studies, Chimera A1. It is filed as biochemical. As for the experimental part:
(§1) Bacterial cultures were grown with shaking at 37 °C in Luria Broth media, in the presence of ampicillin (100 μg/mL). The wild-type and mutant human liver arginase cDNAs were directionally cloned into the pBluescript II KS(+) expression vector and then expressed in E. coli JM109, following induction with 1 mM isopropyl β-D-thiogalactopyranoside. The bacterial cells were disrupted by sonication on ice (5 × 30 s pulses), centrifuged for 20 min at 12,000× g, and the obtained supernatant was precipitated with ammonium sulfate (60% saturation). The pellet, collected by centrifugation at 12,000× g for 10 min, was re-suspended in buffer 5 mM Tris–HCl (pH 7.5) containing 2 mM MnCl2 and dialyzed for 6 h at 4 °C against the same buffer. After incubation with 5 mM MnCl2 for 10 min at 60 °C, the enzyme variants were purified as previously described. The purity of the enzymes was evaluated by SDS–PAGE stained by Coomassie blue and immunodetection using an anti- rat arginase I antibody.
(§2) The single, double, triple, and chimera variants of human arginase type I were obtained by PCR, using the QuickChange site-directed mutagenesis kit (Stratagene, La Jolla, CA, USA); the plasmid pBluescript II KS(+) containing the human liver arginase cDNA was used as template. To obtain the chimeric species of human arginase type I, serial mutations were made in each loop to be modified, using as template DNA the wild-type arginase gene or the previous done mutation, subcloned in the plasmid pBluescript II KS (+). Specifically, the residues present in the arginase structure were replaced by those corresponding to the agmatinase sequence of E. coli.
(§3) All assays were initiated by adding the enzyme to a previously equilibrated buffer with the substrate in solution (the concentrations of used substrates were between 0.2–3 fold the Km). Urea was determined by a colorimetric method with α-isonitrosopropiophenone. The protein concentrations were determined by the Bradford’s method, with bovine serum albumin as standard. Initial velocity and enzymatic inhibition experiments were performed in duplicate and repeated three times. The inhibitory patterns were initially determined by double reciprocal plots and re-plots of intercepts and slopes versus inhibitor concentrations. […] Velocities are expressed as μmol of urea/10 min.

Test [2] deals with T2, human arginase type I N130D-N139D (Homo sapiens, UniProt P05089, N130D/N139D).
T2 sequence (P05089 1-322 N130D/N139D): T1 sequence (P05089 1-322 I129T/N130Y/T131A) with T129I, Y130D, A131T, N139D
In words: Kinetic and inhibition studies, N130D-N139D mutant. The format is biochemical. As for the experimental part: as §1, §2
(§4) All assays were initiated by adding the enzyme to a previously equilibrated buffer with the substrate in solution (the concentrations of used substrates were between 0.2–3 fold the Km). Urea was determined by a colorimetric method with α-isonitrosopropiophenone. The protein concentrations were determined by the Bradford’s method, with bovine serum albumin as standard. […]

Test [3] deals with T3, type I human arginase D181T/V182E + ins F (Homo sapiens, UniProt P05089, D181E/D181T/INS180T/V182E/V182F).
T3 sequence (P05089 with tags, fused parts or gaps INS180T/D181E/V182F): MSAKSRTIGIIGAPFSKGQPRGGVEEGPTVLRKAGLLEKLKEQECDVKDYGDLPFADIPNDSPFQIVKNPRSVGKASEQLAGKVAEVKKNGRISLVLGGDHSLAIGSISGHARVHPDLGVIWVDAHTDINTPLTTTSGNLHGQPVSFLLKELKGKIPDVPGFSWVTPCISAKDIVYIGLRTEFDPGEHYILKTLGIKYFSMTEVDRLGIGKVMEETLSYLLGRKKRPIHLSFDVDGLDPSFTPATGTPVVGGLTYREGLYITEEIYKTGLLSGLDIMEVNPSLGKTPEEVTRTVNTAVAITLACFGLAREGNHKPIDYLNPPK
Put plainly: Kinetic and inhibition studies, D181T/V182E + ins F. It is filed as biochemical. The conditions noted are these: substrate arginine. As for the experimental part: as §1, §2, §3

Test [4] concerns the target T4, human arginase type I N130D-S137C (Homo sapiens, UniProt P05089, N130D/S137C).
T4 sequence (P05089 1-322 N130D/S137C): T1 sequence (P05089 1-322 I129T/N130Y/T131A) with T129I, Y130D, A131T, S137C
In words: Kinetic and inhibition studies, N130D-S137C mutant. The format is biochemical. As for the experimental part:
as §1, §2, §4

A further test concerns arginase N130A. Further details: method as in PMID 19093830. The conditions noted are these: substrate arginine; cited from earlier work.
A further test has as its system human arginase D183N. Further details: method as in PMID 19093830. The following applies: substrate arginine; cited from earlier work.
In a further test the test system is arginase N130Y. Further details: method as in PMID 19093830. The conditions noted are these: substrate arginine; cited from earlier work.
The target of test [5] is single, double and triple mutants (N130D, S137C, N139D) of human arginase type I. Put plainly: Kinetic properties stated for all loop A mutants together. It is filed as biochemical. The conditions noted are these: all mutants of Table 1; substrate arginine; read-out: Ki for competitive inhibition by the ornithine product. As for the experimental part:
as §1
The single, double, triple, and chimera variants of human arginase type I were obtained by PCR, using the QuickChange site-directed mutagenesis kit (Stratagene, La Jolla, CA, USA); the plasmid pBluescript II KS(+) containing the human liver arginase cDNA was used as template. […]

Setting [6] is: substrate = labelled compound, pH 9.5, 2 mM Mn2+.

In the case of `N=C(N)NCCC[C@H](N)C(=O)O` [Arginine, L-arginine], the kcat in test [1] (substrate = labelled compound, n/a = no activity with the substrate) amounted to 6.2 ± 0.4 s⁻¹; in test [2] (substrate = labelled compound) it was 33 s⁻¹; in test [3], 8.1 ± 1 s⁻¹; in test [4] (substrate = labelled compound), 23 s⁻¹. Also, the Km in test [1] (setting [6]) amounted to 2.5 ± 0.5 mM; in test [2] (setting [6]), 6.1 mM; in test [3] (pH 9.5, 2 mM Mn2+), 20 ± 5 mM; in test [4] (setting [6]) it was 6.5 mM. Moreover, the “arginase activity, % of the enzymatic activity of wild-type arginase” value in test [1] (substrate arginine) amounted to 3.5%. For the same compound, in test [1] (substrate arginine), the “decrease of catalytic constant (kcat) compared with wild-type enzyme” value is on record as “approximately 30 times”. Moreover, the “kcat, times lower than the wild-type arginase” value in test [3] came out at 24 times. Also, the “increase of Km for arginine” value in the test on arginase N130A is 50 fold. Further, the reduction of kcat in the test on arginase N130A was 37%. In addition, the “increase in Km” value with human arginase D183N is 27 fold. Further, the reduction in kcat in the test on human arginase D183N is recorded as 12%. For the same compound, the decrease in kcat result with arginase N130Y is listed as “approximately 20 times”.

For `NCCC[C@H](N)C(=O)O` [Ornithine, L-ornithine], the “Inhibition type” value in test [1] (substrate arginine) and in test [3] was “Competitive” in each case. Also, the “Kis (Ki)” value in test [1] (substrate arginine) was 60 ± 2 mM. Also, the figures for the Ki in test [2] (read-out: Ki^orn), in test [5] and in test [4] (read-out: Ki^orn) were 6.4 mM, roughly 7 mM and 7.1 mM, respectively. In addition, in test [3], the Kis is given as 18 ± 6 mM.
